# Reference: US8993628B2, “Synthetic ligands selective for LXRβ over LXRα, identification and methods of use thereof” (City of Hope, priority 2007, dated 2015)
# “Also recorded” adds a separate entry of the source.
# Tests used:
# [1] = tested on: human H4 neuroglioma cells; assay: Quantification of total cellular cholesterol in H4 cells (GC-MS); assay type: cell-based; conditions: 1 μM, 24 hours
# Protocol: In order to confirm the effects of LXR activation on Aβ production in human cells, human H4 neuroglioma cells were treated with the pan-LXR agonist T0901317 (1 μM) for 24 hours and measured the amount of total cellular cholesterol remaining in the cells and the amount of Aβ40 secreted into the media (FIG. 1). As expected, T0901317 reduced both intracellular cholesterol levels as well as secreted Aβ40. […] Also as expected, T0901317 induced a greater than 50-fold increase in ABCA1 expression in H4 cells (FIG. 2). […] For quantification of total cellular cholesterol, H4 cells are seeded in 12-well plates at 70,000 per well. Cells are treated with DMSO (vehicle) or T0901317 in serum-free DMEM for 24 hours in presence of 10 μg/ml apoA1. Cells were lysed with 1N NaOH in 90% ethanol and 10 μM of 5α-cholestane as an internal control tracer. Cholesterol esters were hydrolyzed by incubation at 65° C. for 2 hours. Equal volume of water is added to the samples, and extracted twice with 2 volumes of hexane.
# [2] = tested on: Aβ40; assay: Aβ40 secreted into the media of H4 cells (ELISA kit); assay type: cell-based, human; conditions: 1 μM, 24 hours
# Protocol: In order to confirm the effects of LXR activation on Aβ production in human cells, human H4 neuroglioma cells were treated with the pan-LXR agonist T0901317 (1 μM) for 24 hours and measured the amount of total cellular cholesterol remaining in the cells and the amount of Aβ40 secreted into the media (FIG. 1). As expected, T0901317 reduced both intracellular cholesterol levels as well as secreted Aβ40. […] Also as expected, T0901317 induced a greater than 50-fold increase in ABCA1 expression in H4 cells (FIG. 2). […] To quantify Aβ production, cells were cultured as described above (gene expression analysis). Media was added to the diluent Buffer provided with the kit and assayed according to the manufacturer's instructions (Biosource).
# [3] = tested on: ABCA1; assay: Gene expression analysis of endogenous LXR target gene ABCA1 in H4 cells; assay type: cell-based, human; conditions: for induction of ABCA1 expression: H4 neuroglioma cells, compared with T0901317
# Protocol: (§1) The effect of various concentrations of LXRβ-selective compounds on endogenous LXR target genes in H4 cells was examined. […] Induction of ABCG1, another lipid-transporter regulated by LXR, was also observed in H4 cells treated with T0901317, DY136 and DY142. […] Gene expression analysis was conducted to measure the endogenous LXR target genes. Briefly, cells were plated in a 6-well plate at the following densities/well: 0.35 million H4 cells (DMEM, 10% FBS), 0.5 million CCF-STTG1 (RPMI, 15% FBS), 1 million SH-SY5Y (RPMI, 15% FBS), or 1 million THP (RPMI, 15% FBS+100 nM TPA for 3 days to differentiate). The cells were treated the next day in serum-free DMEM supplemented with insulin, transferrin, and selenium and apoA1 (10 μg/ml). The media was harvested 24 hours later, mixed with a protease inhibitor cocktail (Roche), debris was pelleted (14000 g, 5 min.) and the supernatant saved for Aβ measurements (below). The cells were then rinsed with PBS and lysed with Trizol reagent. RNA isolation and cDNA synthesis (OmniScript, Qiagen) were as per manufacturer's protocol. Gene expression analysis was done in triplicate with 30 ng of cDNA and the following primer-sets: ABCA1, ABCG1, SREBP1c, GAPDH, HPRT (either SYBR Green or FAM-labeled LUX primers (Invitrogen). None of these primers produce primer-dimers or amplified genomic DNA (all primer-sets are intron spanning). The signal for each target gene was normalized to GAPDH and/or HPRT.
# [4] = tested on: ABCG1; assay: Gene expression analysis of endogenous LXR target gene ABCG1 in H4 cells; assay type: cell-based, human
# Protocol: as §1
# [5] = tested on: apoE; assay: Gene expression analysis of apoE in H4 cells; assay type: cell-based, human; conditions: H4 neuroglioma cells
# [6] = tested on: human LXRα; assay: GAL4-LXRα reporter gene assay in transiently transfected CV-1 cells; assay type: cell-based
# Protocol: (§2) Several potential LXR ligands were synthesized as described in Example 5. These compounds were assayed for activity on human LXRα and LXRβ using high-throughput reporter gene assays (e.g., reporter gene assays using Biomek automated workstation) in transiently transfected CV-1 cells.
# In the reporter gene assay CV-1 cells were grown in Dulbecco's Modified Eagle's medium supplemented with 10% resin-charcoal stripped fetal bovine serum, 50 U/ml penicillin G and 50 μg/ml streptomycin sulfate (DMEM-FBS) at 37° C. in 5% CO2. One day prior to transfection, cells were plated to 50-80% confluence using phenol-red free DMEM-FBS. Cells were transiently transfected by lipofection with DOTAP. A GAL4 luciferase reporter construct (300 ng/10^5 cells) and cytomegalovirus driven expression vectors for GAL4-LXRα or GAL4-LXRβ (20-50 ng/10^5 cells) were added along with CMX-βgal (500 ng/10^5 cells) as an internal control. After 2 hours the liposomes were removed and cells treated for approximately 45 hours with phenol-red free DMEM-FBS containing the indicated LXR ligands. After exposure to ligand, the cells were harvested and assayed for luciferase and β-galactosidase activity. All points were assayed in triplicate. […]
# [7] = tested on: human LXRβ; assay: GAL4-LXRβ reporter gene assay in transiently transfected CV-1 cells; assay type: cell-based; conditions: for LXRβ-selectivity factor, fold activation of LXRβ/LXRα: 10 μM, CV-1 reporter gene assays; for activation of LXRβ: reporter gene assay, CV-1 cells
# Protocol: as §2
# (§3) In the reporter gene assay CV-1 cells were grown in Dulbecco's Modified Eagle's medium supplemented with 10% resin-charcoal stripped fetal bovine serum, 50 U/ml penicillin G and 50 μg/ml streptomycin sulfate (DMEM-FBS) at 37° C. in 5% CO2. One day prior to transfection, cells were plated to 50-80% confluence using phenol-red free DMEM-FBS. Cells were transiently transfected by lipofection with DOTAP. A GAL4 luciferase reporter construct (300 ng/10^5 cells) and cytomegalovirus driven expression vectors for GAL4-LXRα or GAL4-LXRβ (20-50 ng/10^5 cells) were added along with CMX-βgal (500 ng/10^5 cells) as an internal control. After 2 hours the liposomes were removed and cells treated for approximately 45 hours with phenol-red free DMEM-FBS containing the indicated LXR ligands. After exposure to ligand, the cells were harvested and assayed for luciferase and β-galactosidase activity. All points were assayed in triplicate. […] Use of reporter gene assays are known in the art and described for example in Sambrook et al., Molecular Cloning: A Laboratory Manual, 2nd Ed., Cold Spring Harbor Laboratory Press, Cold Spring Harbor, N.Y.
# [8] = tested on: C57BL/6 mice; conditions: 1 week of treatment; cited from earlier work
# [9] = tested on: primary neuronal and astrocyte cultures; conditions: cited from earlier work
# [10] = tested on: mouse Neuro2A cells expressing human APPswe; conditions: cited from earlier work
# [11] = tested on: transgenic mice expressing human APPswe; conditions: one-week treatment; cited from earlier work
# [12] = tested on: SREBP1c; assay: Gene expression analysis of endogenous LXR target gene SREBP1c in H4 cells; assay type: cell-based, human; conditions: compared with T0901317
# Protocol: as §1, with “Gene expression analysis was done in triplicate with 30 ng of cDNA and the following primer-sets: ABCA1, ABCG1, SREBP1c, GAPDH, HPRT (either SYBR Green or FAM-labeled LUX primers (Invitrogen). None of these primers produce primer-dimers or amplified genomic DNA (all primer-sets are intron spanning). The signal for each target gene was normalized to GAPDH and/or HPRT.” left out
# [13] = target: T1, human LXRβ (Homo sapiens, UniProt P55055); assay: GAL4-LXRβ reporter gene assay in transiently transfected CV-1 cells; assay type: cell-based; conditions: reporter gene assay, CV-1 cells; FIG. 2 left; receptor subtype not stated
# T1 construct: EC50; other: reporter gene assay, CV-1 cells
# T1 sequence (P55055 222-460): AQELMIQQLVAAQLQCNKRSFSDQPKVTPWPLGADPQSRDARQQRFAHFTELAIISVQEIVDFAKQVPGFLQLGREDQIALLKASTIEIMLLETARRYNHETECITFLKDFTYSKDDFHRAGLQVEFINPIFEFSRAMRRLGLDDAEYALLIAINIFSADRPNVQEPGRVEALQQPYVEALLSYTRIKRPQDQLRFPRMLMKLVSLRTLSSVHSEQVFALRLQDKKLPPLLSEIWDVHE
# Protocol: as §2, §3
# [14] = tested on: LXR; conditions: cited from earlier work
smiles,measurement,setting,value
O=S(=O)(c1ccccc1)N(CC(F)(F)F)c1ccc(C(O)(C(F)(F)F)C(F)(F)F)cc1 [T0901317],intracellular cholesterol levels (total cellular cholesterol),[1],reduced
same,secreted Aβ40,[2],reduced
same,increase in ABCA1 expression,[3]; H4 cells,greater than 50 fold
same,induction of ABCG1,[4],observed
same,ApoE expression,[5],increased
same,activation of LXRα,[6],activated
same,"LXRβ-selectivity factor, fold activation of LXRβ/LXRα",[7],1.7
same,activation of LXRβ,[7],activated
same,hypertriglyceridemia,[8],induces severe hypertriglyceridemia
same,cholesterol efflux,[9],enhanced cholesterol efflux
same,Aβ production,[10],decreased
same,Aβ40 and Aβ42 in the brain,[11],significant decrease
"O=C(O)Cc1cccc(OCCCN(Cc2cccc(C(F)(F)F)c2F)CC(c2ccccc2)c2ccccc2)c1 [DY136, (3-{3-[(2,2-Diphenyl-ethyl)-(2-fluoro-3-trifluoromethyl-benzyl)-amino]-propoxy}-phenyl)-acetic acid]",induction of ABCA1 expression,[3],expected activation; also recorded: to a level nearly that of the pan-agonist T0901317
same,induction of ABCG1,[4],observed
same,induction of SREBP1c,[12],little effect; also recorded: only half that observed with T0901317
same,ApoE expression,[5],increased
same,EC50,[13],1000 to 3000 nM
same,"LXRβ-selectivity factor, fold activation of LXRβ/LXRα",[7],3.4
"O=C(O)Cc1cccc(OCCCN(Cc2cccc(C(F)(F)F)c2)CC(c2ccccc2)c2ccccc2)c1 [DY142, (3-{3-[(2,2-Diphenyl-ethyl)-(3-trifluoromethyl-benzyl)-amino]-propoxy}-phenyl)-acetic acid]",induction of ABCA1 expression,[3],expected activation; also recorded: to a level nearly that of the pan-agonist T0901317
same,induction of ABCG1,[4],observed
same,induction of SREBP1c,[12],little effect; also recorded: only half that observed with T0901317
same,ApoE expression,[5],"increased by all three ligands, although the effects were slightly lower"
same,EC50,[13],1000 to 3000 nM
same,"LXRβ-selectivity factor, fold activation of LXRβ/LXRα",[7],6.5
O=C(O)Cc1cccc(OCCCN(Cc2cccc(C(F)(F)F)c2Cl)CC(c2ccccc2)c2ccccc2)c1 [GW3965],activation of LXRα,[6],activated
same,"LXRβ-selectivity factor, fold activation of LXRβ/LXRα",[7],2.2
same,activation of LXRβ,[7],activated
same,association of LXR with a coactivator peptide derived from SRC-1,[14],promotes association
